Source: ChEMBL document CHEMBL1208670, “Synthesis, characterization and antimicrobial studies of 2-(4-methoxy-phenyl)-5-methyl-4-(2-arylsulfanyl-ethyl)-2,4-dihydro-[1,2,4] triazolo-3-ones and their corresponding sulfones” (2010)
Converted amounts (≈) assume the structure as drawn.

Key:
Type in all cases: functional
[1] = test system: Staphylococcus epidermidis; test: Antibacterial activity against Staphylococcus epidermidis by twofold serial dilution method
Pseudomonas aeruginosa = test: Antibacterial activity against Pseudomonas aeruginosa by twofold serial dilution method
Saccharomyces cerevisiae = test: Antifungal activity against Saccharomyces cerevisiae by twofold serial dilution method
Aspergillus flavus = test: Antifungal activity against Aspergillus flavus by twofold serial dilution method
Rhizopus arrhizus = test: Antifungal activity against Rhizopus oryzae by twofold serial dilution method
Bacillus subtilis = test: Antibacterial activity against Bacillus subtilis by twofold serial dilution method
Escherichia coli = test: Antibacterial activity against Escherichia coli by twofold serial dilution method
Aspergillus niger = test: Antifungal activity against Aspergillus niger by twofold serial dilution method
Staphylococcus aureus = test: Antibacterial activity against Staphylococcus aureus by twofold serial dilution method
Candida albicans = test: Antifungal activity against Candida albicans by twofold serial dilution method

Compound | MIC [1] | MIC (Pseudomonas aeruginosa) | MIC (Saccharomyces cerevisiae) | MIC (Aspergillus flavus) | MIC (Rhizopus arrhizus) | MIC (Bacillus subtilis) | MIC (Escherichia coli) | MIC (Aspergillus niger) | MIC (Staphylococcus aureus) | MIC (Candida albicans)
COc1ccc(-n2nc(C)n(CCSc3ccc(F)cc3)c2=O)cc1 | 75 µg/mL (≈ 209 µM) | 75 µg/mL (≈ 209 µM) | 150 µg/mL (≈ 417 µM) | 150 µg/mL (≈ 417 µM) | 150 µg/mL (≈ 417 µM) | 150 µg/mL (≈ 417 µM) | 150 µg/mL (≈ 417 µM) | 150 µg/mL (≈ 417 µM) | 75 µg/mL (≈ 209 µM) | 150 µg/mL (≈ 417 µM)
COc1ccc(-n2nc(C)n(CCSc3cccc(C(F)(F)F)c3)c2=O)cc1 | 150 µg/mL (≈ 366 µM) | 75 µg/mL (≈ 183 µM) | 150 µg/mL (≈ 366 µM) | 150 µg/mL (≈ 366 µM) | 18.8 µg/mL (≈ 45.8 µM) | 150 µg/mL (≈ 366 µM) | 9.75 µg/mL (≈ 23.8 µM) | 150 µg/mL (≈ 366 µM) | 9.75 µg/mL (≈ 23.8 µM) | 150 µg/mL (≈ 366 µM)
COc1ccc(-n2nc(C)n(CCSc3ccc(Br)cc3)c2=O)cc1 | 150 µg/mL (≈ 357 µM) | 75 µg/mL (≈ 178 µM) | 150 µg/mL (≈ 357 µM) | 75 µg/mL (≈ 178 µM) | 75 µg/mL (≈ 178 µM) | 75 µg/mL (≈ 178 µM) | 150 µg/mL (≈ 357 µM) | 75 µg/mL (≈ 178 µM) | 150 µg/mL (≈ 357 µM) | 150 µg/mL (≈ 357 µM)
COc1ccc(-n2nc(C)n(CCSc3cccc(OC)c3)c2=O)cc1 | 150 µg/mL (≈ 404 µM) | 75 µg/mL (≈ 202 µM) | 150 µg/mL (≈ 404 µM) | 75 µg/mL (≈ 202 µM) | 37.5 µg/mL (≈ 101 µM) | 18.8 µg/mL (≈ 50.5 µM) | 18.8 µg/mL (≈ 50.5 µM) | 37.5 µg/mL (≈ 101 µM) | 75 µg/mL (≈ 202 µM) | 150 µg/mL (≈ 404 µM)
COc1ccc(-n2nc(C)n(CCSc3ccc(N)cc3)c2=O)cc1 | 75 µg/mL (≈ 210 µM) | 150 µg/mL (≈ 421 µM) | 150 µg/mL (≈ 421 µM) | 75 µg/mL (≈ 210 µM) | 37.5 µg/mL (≈ 105 µM) | 75 µg/mL (≈ 210 µM) | 150 µg/mL (≈ 421 µM) | 37.5 µg/mL (≈ 105 µM) | 75 µg/mL (≈ 210 µM) | 150 µg/mL (≈ 421 µM)
COc1ccc(-n2nc(C)n(CCSc3ccccc3)c2=O)cc1 | 37.5 µg/mL (≈ 110 µM) | 75 µg/mL (≈ 220 µM) | 150 µg/mL (≈ 439 µM) | 75 µg/mL (≈ 220 µM) | 75 µg/mL (≈ 220 µM) | 75 µg/mL (≈ 220 µM) | 37.5 µg/mL (≈ 110 µM) | 37.5 µg/mL (≈ 110 µM) | 75 µg/mL (≈ 220 µM) | 150 µg/mL (≈ 439 µM)
COc1ccc(-n2nc(C)n(CCSc3nnc(-c4ccc(Cl)cc4)o3)c2=O)cc1 | 150 µg/mL (≈ 338 µM) | 150 µg/mL (≈ 338 µM) | 150 µg/mL (≈ 338 µM) | 150 µg/mL (≈ 338 µM) | 150 µg/mL (≈ 338 µM) | 150 µg/mL (≈ 338 µM) | 150 µg/mL (≈ 338 µM) | 150 µg/mL (≈ 338 µM) | 75 µg/mL (≈ 169 µM) | 150 µg/mL (≈ 338 µM)
COc1ccc(-n2nc(C)n(CCS(=O)(=O)c3ccccc3F)c2=O)cc1 | 75 µg/mL (≈ 192 µM) | 37.5 µg/mL (≈ 95.8 µM) | 150 µg/mL (≈ 383 µM) | 75 µg/mL (≈ 192 µM) | 18.8 µg/mL (≈ 47.9 µM) | 150 µg/mL (≈ 383 µM) | 150 µg/mL (≈ 383 µM) | 37.5 µg/mL (≈ 95.8 µM) | 37.5 µg/mL (≈ 95.8 µM) | 150 µg/mL (≈ 383 µM)
COc1ccc(-n2nc(C)n(CCS(=O)(=O)c3cccc(F)c3)c2=O)cc1 | 37.5 µg/mL (≈ 95.8 µM) | 150 µg/mL (≈ 383 µM) | 150 µg/mL (≈ 383 µM) | 75 µg/mL (≈ 192 µM) | 37.5 µg/mL (≈ 95.8 µM) | 75 µg/mL (≈ 192 µM) | 9.38 µg/mL (≈ 24 µM) | 37.5 µg/mL (≈ 95.8 µM) | 18.8 µg/mL (≈ 47.9 µM) | 150 µg/mL (≈ 383 µM)
COc1ccc(-n2nc(C)n(CCS(=O)(=O)c3ccc(F)cc3)c2=O)cc1 | 37.5 µg/mL (≈ 95.8 µM) | 75 µg/mL (≈ 192 µM) | 150 µg/mL (≈ 383 µM) | 75 µg/mL (≈ 192 µM) | 75 µg/mL (≈ 192 µM) | 75 µg/mL (≈ 192 µM) | 37.5 µg/mL (≈ 95.8 µM) | 37.5 µg/mL (≈ 95.8 µM) | 75 µg/mL (≈ 192 µM) | 150 µg/mL (≈ 383 µM)
COc1ccc(-n2nc(C)n(CCS(=O)(=O)c3cccc(C(F)(F)F)c3)c2=O)cc1 | 75 µg/mL (≈ 170 µM) | 18.8 µg/mL (≈ 42.5 µM) | 150 µg/mL (≈ 340 µM) | 75 µg/mL (≈ 170 µM) | 75 µg/mL (≈ 170 µM) | 37.5 µg/mL (≈ 85 µM) | 37.5 µg/mL (≈ 85 µM) | 37.5 µg/mL (≈ 85 µM) | 18.8 µg/mL (≈ 42.5 µM) | 150 µg/mL (≈ 340 µM)
COc1ccc(-n2nc(C)n(CCS(=O)(=O)c3ccc(Br)cc3)c2=O)cc1 | 150 µg/mL (≈ 332 µM) | 150 µg/mL (≈ 332 µM) | 150 µg/mL (≈ 332 µM) | 75 µg/mL (≈ 166 µM) | 37.5 µg/mL (≈ 82.9 µM) | 75 µg/mL (≈ 166 µM) | 150 µg/mL (≈ 332 µM) | 37.5 µg/mL (≈ 82.9 µM) | 9.38 µg/mL (≈ 20.7 µM) | 150 µg/mL (≈ 332 µM)
COc1ccc(-n2nc(C)n(CCS(=O)(=O)c3ccccc3)c2=O)cc1 | 75 µg/mL (≈ 201 µM) | 75 µg/mL (≈ 201 µM) | 150 µg/mL (≈ 402 µM) | 150 µg/mL (≈ 402 µM) | 150 µg/mL (≈ 402 µM) | 150 µg/mL (≈ 402 µM) | 150 µg/mL (≈ 402 µM) | 150 µg/mL (≈ 402 µM) | 37.5 µg/mL (≈ 100 µM) | 150 µg/mL (≈ 402 µM)
COc1ccc(-n2nc(C)n(CCSc3ccccc3F)c2=O)cc1 | 150 µg/mL (≈ 417 µM) | 37.5 µg/mL (≈ 104 µM) | 150 µg/mL (≈ 417 µM) | 150 µg/mL (≈ 417 µM) | 9.75 µg/mL (≈ 27.1 µM) | 37.5 µg/mL (≈ 104 µM) | 75 µg/mL (≈ 209 µM) | 150 µg/mL (≈ 417 µM) | 9.75 µg/mL (≈ 27.1 µM) | 37.5 µg/mL (≈ 104 µM)
COc1ccc(-n2nc(C)n(CCSc3cccc(F)c3)c2=O)cc1 | 75 µg/mL (≈ 209 µM) | 37.5 µg/mL (≈ 104 µM) | 150 µg/mL (≈ 417 µM) | 150 µg/mL (≈ 417 µM) | 37.5 µg/mL (≈ 104 µM) | 150 µg/mL (≈ 417 µM) | 150 µg/mL (≈ 417 µM) | 150 µg/mL (≈ 417 µM) | 37.5 µg/mL (≈ 104 µM) | 150 µg/mL (≈ 417 µM)
C[C@@H]1[C@H](O)[C@@H](C)/C=C/C=C/C=C/C=C/C=C/C=C/C=C/[C@H](O[C@@H]2O[C@H](C)[C@@H](O)[C@H](N)[C@@H]2O)C[C@@H]2O[C@](O)(C[C@@H](O)C[C@@H](O)[C@H](O)CC[C@@H](O)C[C@@H](O)CC(=O)O[C@H]1C)C[C@H](O)[C@H]2C(=O)O [AMPHOTERICIN B] |  |  | 6.25 µg/mL (≈ 6.76 µM) | 6.25 µg/mL (≈ 6.76 µM) | 1.56 µg/mL (≈ 1.69 µM) |  |  | 1.56 µg/mL (≈ 1.69 µM) |  | 6.25 µg/mL (≈ 6.76 µM)
CC1(C)S[C@@H]2[C@H](NC(=O)Cc3ccccc3)C(=O)N2[C@H]1C(=O)O [PENICILLIN G] | 3.12 µg/mL (≈ 9.35 µM) | 12.5 µg/mL (≈ 37.4 µM) |  |  |  | 1.53 µg/mL (≈ 4.56 µM) | 7.81 µg/mL (≈ 23.4 µM) |  | 6.25 µg/mL (≈ 18.7 µM) | 
CN[C@@H]1[C@H](O[C@H]2[C@H](O[C@H]3[C@H](O)[C@@H](O)[C@H](N=C(N)N)[C@@H](O)[C@@H]3N=C(N)N)O[C@@H](C)[C@]2(O)C=O)O[C@@H](CO)[C@H](O)[C@H]1O [STREPTOMYCIN] | 1.56 µg/mL (≈ 2.69 µM) | 3.12 µg/mL (≈ 5.37 µM) |  |  |  | 6.25 µg/mL (≈ 10.7 µM) | 3.12 µg/mL (≈ 5.37 µM) |  | 1.56 µg/mL (≈ 2.68 µM) | 
